The values that follow come from patent publication US9150555B2, “Amide derivative and use thereof” (Mitsubishi Tanabe Pharma Corporation, priority 2010, dated 2015).

Structures are written as SMILES.

For one data set, the target named is hERG (Homo sapiens, UniProt Q12809). Put plainly: Effects on hERG current (whole-cell clamping). Conditions: human, HEK 293 cells that express hERG, pH 7.4, hERG inhibition rate (%) (1 μM), 1 μM; tail peak current; hERG-expressed HEK 293 cells. (The hERG channel carries a current that helps repolarise heart muscle cells.)
Chain of hERG (Q12809 whole entry): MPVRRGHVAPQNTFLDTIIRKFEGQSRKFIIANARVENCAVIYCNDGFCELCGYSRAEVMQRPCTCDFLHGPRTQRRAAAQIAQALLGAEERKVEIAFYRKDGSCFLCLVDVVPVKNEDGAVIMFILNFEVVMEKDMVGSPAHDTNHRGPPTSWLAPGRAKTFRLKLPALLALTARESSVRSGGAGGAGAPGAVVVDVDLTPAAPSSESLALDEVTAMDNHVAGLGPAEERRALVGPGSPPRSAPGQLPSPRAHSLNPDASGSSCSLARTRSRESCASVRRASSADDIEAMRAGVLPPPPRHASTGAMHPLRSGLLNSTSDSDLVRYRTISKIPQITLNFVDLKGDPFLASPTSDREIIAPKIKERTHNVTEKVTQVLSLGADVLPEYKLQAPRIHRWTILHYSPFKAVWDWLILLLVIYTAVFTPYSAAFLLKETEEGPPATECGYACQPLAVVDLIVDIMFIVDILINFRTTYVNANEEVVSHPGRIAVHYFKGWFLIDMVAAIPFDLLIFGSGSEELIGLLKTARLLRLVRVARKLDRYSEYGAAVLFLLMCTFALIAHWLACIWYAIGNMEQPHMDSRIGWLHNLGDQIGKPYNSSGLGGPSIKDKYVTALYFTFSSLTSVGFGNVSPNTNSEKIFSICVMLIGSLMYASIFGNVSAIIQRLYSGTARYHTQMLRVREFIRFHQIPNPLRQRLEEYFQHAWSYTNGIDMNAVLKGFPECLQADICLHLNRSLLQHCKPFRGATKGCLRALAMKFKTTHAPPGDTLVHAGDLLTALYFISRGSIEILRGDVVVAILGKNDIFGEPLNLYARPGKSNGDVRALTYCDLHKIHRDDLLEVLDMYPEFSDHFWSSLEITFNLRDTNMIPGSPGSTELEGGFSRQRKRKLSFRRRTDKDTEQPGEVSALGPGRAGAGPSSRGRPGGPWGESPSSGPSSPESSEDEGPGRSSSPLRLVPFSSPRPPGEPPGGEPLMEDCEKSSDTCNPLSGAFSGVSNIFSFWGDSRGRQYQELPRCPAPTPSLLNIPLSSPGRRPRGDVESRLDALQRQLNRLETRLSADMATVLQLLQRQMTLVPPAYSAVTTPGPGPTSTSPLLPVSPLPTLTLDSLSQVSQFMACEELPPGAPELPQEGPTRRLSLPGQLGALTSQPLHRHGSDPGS
The subject of data set [1] is IL-17 production of mouse spleen cells stimulated by rm-IL-23. The experiment in a line: Production of IL-17 induced when mouse spleen cells were stimulated by recombinant mouse interleukin-23 (rm-IL-23). Type of data set: cell-based. To be noted: Mus musculus, 72 h, inhibition of IL-17 production, DBA/1J mouse spleen cells, rm-IL-23 1 nmol/L, ELISA. In a few lines: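 Spleen cells from 6-7 week-old male DBA/1J mice, 2×10^5 cells/well in 10% FCS RPMI1640, cultured 72 h at 37° C with compound (1 to 1,000 nmol/L) plus 1 nmol/L rm-IL-23. IL-17 in supernatant by ELISA; viability by WST-8 absorbance at 450 nm; IC50 by linear regression of inhibition rate.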
A general note: ELISA stands for enzyme-linked immunosorbent assay.

As for `Cc1c(C(=O)Nc2ccc([C@]3(C#N)CC[C@@H](O)CC3)nc2)cnn1-c1ncc(C(F)(F)F)cc1Cl` [Example J15], on hERG, the inhibition (in general, the drop in the measured response relative to a control, in per cent) at 1 µM turned out to be 8.2%. Moreover, the IC50 (commonly the point on the concentration scale where inhibition reaches its midpoint) in data set [1] was 438 nM.

For `Cc1c(C(=O)Nc2ccc([C@]3(C#N)CC[C@@H](O)CC3)nc2)cnn1-c1ncc(C(F)(F)F)cc1F` [Example J16], the inhibition at 1 µM against hERG worked out at 13.5%. Also, in data set [1], the IC50 is 305 nM.

`Cc1c(C(=O)Nc2ccc([C@]3(C#N)CC[C@@H](O)CC3)nc2)cnn1-c1ncc(C2CC2)cc1F` [Example J17] yielded an inhibition at 1 µM at hERG of 2.4%. In addition, the IC50 in data set [1] was 275 nM.

On hERG, `Cc1c(C(=O)Nc2ccc([C@]3(C#N)CC[C@@H](O)CC3)nc2)cnn1-c1ccc(C(C)C)cc1` [Example J18] returned an inhibition at 1 µM of 17.8%. The IC50 in data set [1] came to 137 nM.

As for `Cc1c(C(=O)Nc2ccc([C@]3(C#N)CC[C@@H](O)CC3)nc2)cnn1-c1ccc(C2CC2)cc1` [Example J19], at 1 µM the inhibition against hERG was 18.5%. Besides, the IC50 in data set [1] is 132 nM.

In turn, `CCc1ccc(-n2ncc(C(=O)Nc3ccc([C@]4(C#N)CC[C@@H](O)CC4)nc3)c2C)cc1` [Example J20] displayed an inhibition at 1 µM against hERG of 18.1%. In data set [1], the IC50 was 90 nM.

`Cc1c(C(=O)Nc2ccc(C3(C(=O)O)CCCCC3)nc2)cnn1-c1ccc(Cl)cc1` [Example K4, 1-[5-({[1-(4-Chlorophenyl)-5-methyl-1H-pyrazol-4-yl]carbonyl}amino)pyridin-2-yl]-cyclohexanecarboxylic acid]: at 1 µM the inhibition against hERG was 17.2%. Further, the IC50 in data set [1] is 127 nM.

The compound `Cc1c(C(=O)Nc2ccc(C3(C#N)CCC(O)CC3)nc2)cnn1-c1ccc(C(F)(F)F)cn1` (centres unmarked) [Example K6, N-[6-(r-1-Cyano-c-4-hydroxycyclohexyl)pyridin-3-yl]-5-methyl-1-[5-(trifluoromethyl)pyridin-2-yl]-1H-pyrazole-4-carboxamide] gave an inhibition at 1 µM against hERG of 40%. For the same compound, in data set [1], the IC50 was found to be 148 nM.

With `Cc1ccc(-n2ncc(C(=O)Nc3ccc([C@]4(C#N)CC[C@@H](OCCO)CC4)nc3)c2C)cc1` [Example K19, N-{6-[r-1-cyano-c-4-(2-hydroxyethoxy)cyclohexyl]pyridin-3-yl}-5-methyl-1-(4-methylphenyl)-1H-pyrazole-4-carboxamide], testing at 1 µM at hERG gave an inhibition of 2.4%. Besides, the IC50 in data set [1] came to 148 nM.

`CNC1CC=C(c2ncc(NC(=O)c3cnn(-c4ccc(C(F)(F)F)cn4)c3C)cc2C)CC1` (centres unmarked) [Example K26, 5-Methyl-N-[5-methyl-6-(4-methylaminocyclohex-1-en-1-yl)pyridin-3-yl]-1-[5-(trifluoromethyl)pyridin-2-yl]-1H-pyrazole-4-carboxamide] yielded an inhibition at 1 µM against hERG of 14.3%. Further, the IC50 in data set [1] was 376 nM.

As to `CC(=O)N(C)C1CC=C(c2ncc(NC(=O)c3cnn(-c4ccc(C(F)(F)F)cn4)c3C)cc2C)CC1` (centres unmarked) [Example K27, N-{6-[4-(N-Acetyl-N-methylamino)cyclohex-1-en-1-yl]-5-methylpyridin-3-yl}-5-methyl-1-[5-(trifluoromethyl)pyridin-2-yl]-1H-pyrazole-4-carboxamide], on hERG, 1 µM produced 9.7% inhibition. Besides, in data set [1], the IC50 came to 242 nM.

For the compound `Cc1cc(NC(=O)c2cnn(-c3ccc(C(F)(F)F)cn3)c2C)cnc1C1=CCC(N(C)C(=O)C(C)(C)C)CC1` (centres unmarked) [Example K28, N-(6-{4-[N-(2,2-Dimethylpropion-1-yl)-N-methylamino]cyclohex-1-en-1-yl}-5-methylpyridin-3-yl)-5-methyl-1-[5-(trifluoromethyl)pyridin-2-yl]-1H-pyrazole-4-carboxamide], on hERG, the inhibition at 1 µM came to 5.1%. The IC50 in data set [1] came to 8.11 nM.

The compound `Cc1cc(NC(=O)c2cnn(-c3ccc(C(F)(F)F)cn3)c2C)cnc1C1=CCC(N(C)CCC(C)(C)C)CC1` (centres unmarked) [Example K30, N-(6-[4-[N-(3,3-Dimethylbutyl)-N-methylamino]cyclohex-1-en-1-yl]-5-methylpyridin-3-yl)-5-methyl-1-[5-(trifluoromethyl)pyridin-2-yl]-1H-pyrazole-4-carboxamide] showed an inhibition at 1 µM against hERG of 79.6%. Also, the IC50 in data set [1] is 368 nM.
